Key:
Assay type in all cases: physicochemical
[1] = Solubility of agrochemical actives in the solvents: visual observation at 0° C. after 7 days (CIPAC MT39 test); design: key: Crystal: When the formation of active crystals is observed, the term of <> is indicated; Limpid: When the solution remains limpid (absence of solid or cloudiness), it is the term of <> which is indicated; details: 7 days at 0° C.
Protocol: (§1) Formulations were made by diluting various actives, reported below in the table, in the compounds 1C, 2C, 3 and 4 synthesized above.
2) Visual observation at 0° C.
The formulation is placed at 0° C. for 7 days and the aspect of the formulation is noted and the presence of crystals is possibly located (CIPAC MT39 test).
(§2) The actives used are commercially available.

[2] = Solubility of agrochemical actives in the solvents: visual observation at 0° C. with nucleation; design: key: Crystal: When the formation of active crystals is observed, the term of <> is indicated; Limpid: When the solution remains limpid (absence of solid or cloudiness), it is the term of <> which is indicated; details: crystal of active added, further 7 days at 0° C.
Protocol: Formulations were made by diluting various actives, reported below in the table, in the compounds 1C, 2C, 3 and 4 synthesized above. 3) Visual observation at 0° C. with nucleation (by introducing a crystal of the pure active into the liquid) A crystal of the active material is introduced into the formulation which has spent 7 days at 0° C. for nucleation, and the formulation is again placed for 7 days at 0° C. The aspect of the formulation is noted and the presence of crystals or the growth of the introduced crystal is possibly located. The actives used are commercially available.

[3] = Solubility of agrochemical actives in the solvents: visual observation at 25° C.; design: key: Crystal: When the formation of active crystals is observed, the term of <> is indicated; Limpid: When the solution remains limpid (absence of solid or cloudiness), it is the term of <> which is indicated
Protocol: as §1
1) Visual observation at 25° C.
The aspect of the formulation is noted and the presence of crystals is possibly located.
as §2

[4] = Measurement of solubility of the solvent in water; details: +20° C., stirred 2 hours, visual limpidity
Protocol: In a glass flask, a specific weight of compound is weighed. A known mass of water is added on to this compound. T his mixture is magnetically stirred at a temperature of +20° C. for 2 hours. After this period, if visually, the solution has cloudiness or heterogeneity, a new mass of water is added to the mixture. This iteration occurs until a limpid solution is obtained. Maximum solubility is then less than the last value having led to a cloudy or heterogeneous mixture and greater than that having led to a limpid mixture.

[5] = Active Alachlor 48% EC in the compound as solvent
[6] = Active Chlorpyrifos 40% EC in the compound as solvent
[7] = Active Difenconazole 25% EC in the compound as solvent
[8] = Active Dimethoate 40% EC in the compound as solvent
[9] = Active Oxyfluorfen 22% EC in the compound as solvent
[10] = Active Pendimethalin 33% EC in the compound as solvent
[11] = Active Propanil 36% EC in the compound as solvent
[12] = Active Propuxur 20% EC in the compound as solvent
[13] = Active Trifluralin 40% EC in the compound as solvent
[14] = Active alpha-Cypermethrin 10% EC in the compound as solvent
[15] = Active Azoxystrobin 25% EC in the compound as solvent
[16] = Active Phenmedipham 16% EC in the compound as solvent
[17] = Active Tebuconazole 25% EC in the compound as solvent

Structure (SMILES) | Aspect at 0° C. [1, 5] | Aspect at 0° C. [1, 6] | Aspect at 0° C. [1, 7] | Aspect at 0° C. [1, 8] | Aspect at 0° C. [1, 9] | Aspect at 0° C. [1, 10] | Aspect at 0° C. [1, 11] | Aspect at 0° C. [1, 12] | Aspect at 0° C. [1, 13] | Aspect at 0° C. [1, 14] | Aspect at 0° C. with nucleation [2, 5] | Aspect at 0° C. with nucleation [2, 7] | Aspect at 0° C. with nucleation [2, 9] | Aspect at 0° C. with nucleation [2, 11] | Aspect at 0° C. with nucleation [2, 14] | Aspect at 25° C. [3, 5] | Aspect at 25° C. [3, 7] | Aspect at 25° C. [3, 9] | Aspect at 25° C. [3, 11] | Aspect at 25° C. [3, 13] | further results
CCCCC(CC)COC(=O)C(=O)N(C)C (centres unmarked) [Compound 3, 2-ethyl-hexyl 2-(dimethylamino)-2-oxoacetate] | Limpid | Limpid | Limpid | Crystal | Limpid | Crystal | Limpid | Crystal | Limpid | Limpid | Limpid | Limpid | Crystal | Limpid | Limpid | Limpid | Limpid | Limpid | Limpid | Limpid | Aspect at 0° C. with nucleation [2, 6]: Limpid; Aspect at 0° C. with nucleation [2, 13]: Limpid; Aspect at 25° C. [3, 6]: Limpid; Aspect at 25° C. [3, 8]: Limpid; Aspect at 25° C. [3, 10]: Limpid; Aspect at 25° C. [3, 12]: Limpid; Aspect at 25° C. [3, 14]: Limpid; Solubility in water (wt %) [4]: <0.1 wt %
COC(=O)C(=O)N(C)C [Compound 1, methyl 2-(dimethylamino)-2-oxoacetate] | Limpid | – | Limpid | Crystal | Crystal | Crystal | Limpid | Limpid | Crystal | Limpid | Limpid | Limpid | – | Limpid | Limpid | Limpid | Limpid | Limpid | Limpid | Limpid | Aspect at 0° C. [1, 15]: Crystal; Aspect at 0° C. [1, 16]: Limpid; Aspect at 0° C. [1, 17]: Crystal; Aspect at 0° C. with nucleation [2, 16]: Limpid; Aspect at 0° C. with nucleation [2, 12]: Limpid; Aspect at 25° C. [3, 15]: Limpid; Aspect at 25° C. [3, 8]: Limpid; Aspect at 25° C. [3, 10]: Limpid; Aspect at 25° C. [3, 16]: Limpid; Aspect at 25° C. [3, 12]: Limpid; Aspect at 25° C. [3, 17]: Limpid; Aspect at 25° C. [3, 14]: Limpid
CCOC(=O)C(=O)N(C)C [Compound 2, ethyl 2-(dimethylamino)-2-oxoacetate] | Limpid | Limpid | Limpid | Limpid | Limpid | Crystal | Limpid | Crystal | Limpid | Limpid | Limpid | Limpid | Limpid | Limpid | Limpid | Limpid | Limpid | Limpid | Limpid | Limpid | Aspect at 0° C. [1, 15]: Crystal; Aspect at 0° C. [1, 16]: Limpid; Aspect at 0° C. [1, 17]: Crystal; Aspect at 0° C. with nucleation [2, 6]: Limpid; Aspect at 0° C. with nucleation [2, 8]: Crystal; Aspect at 0° C. with nucleation [2, 16]: Limpid; Aspect at 0° C. with nucleation [2, 13]: Limpid; Aspect at 25° C. [3, 15]: Limpid; Aspect at 25° C. [3, 6]: Limpid; Aspect at 25° C. [3, 8]: Limpid; Aspect at 25° C. [3, 10]: Limpid; Aspect at 25° C. [3, 16]: Limpid; Aspect at 25° C. [3, 12]: Limpid; Aspect at 25° C. [3, 17]: Limpid; Aspect at 25° C. [3, 14]: Limpid
CCCCCCCCCCOC(=O)C(=O)N(C)C [Compound 4, n-decyl 2-(dimethylamino)-2-oxoacetate] | Limpid | Crystal | Limpid | – | Limpid | – | Limpid | – | Crystal | – | Limpid | Limpid | Limpid | Limpid | – | Limpid | Limpid | Limpid | Limpid | Limpid | Aspect at 25° C. [3, 6]: Limpid; Solubility in water (wt %) [4]: <0.025 wt %

Reference: patent US8981148B2, “Esteramide compounds, methods for preparing same, and uses thereof” (priority 2010, dated 2015)
